Experimental findings from ChEMBL document CHEMBL5604063, “ASAP - DENV-2 NS2B-NS3 protease fluorescence dose response” (2024) are described below.

pIC50: −log10 of the molar value. Values joined by “and” are separate entries in the source; they are usually repeats but may differ in a detail not shown here. Equal entries are not always repeated. A value given as a limit tells only on which side of the number the result lay.

Experiment [1] concerns the target T1, Genome polyprotein (dengue virus type 2, UniProt P29990). It is filed as functional, Thailand/16681/1984.
The target of experiment [2] is T1, Genome polyprotein. The class given is functional, Thailand/16681/1984. The source holds these as a separate data set.

T1 sequence (P29990 1346-1475 limits assumed): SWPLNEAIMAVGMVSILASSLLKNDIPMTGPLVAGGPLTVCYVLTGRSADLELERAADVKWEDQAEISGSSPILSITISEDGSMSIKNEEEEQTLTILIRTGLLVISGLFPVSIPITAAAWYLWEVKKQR
T1 sequence (P29990 1476-2093 limits assumed): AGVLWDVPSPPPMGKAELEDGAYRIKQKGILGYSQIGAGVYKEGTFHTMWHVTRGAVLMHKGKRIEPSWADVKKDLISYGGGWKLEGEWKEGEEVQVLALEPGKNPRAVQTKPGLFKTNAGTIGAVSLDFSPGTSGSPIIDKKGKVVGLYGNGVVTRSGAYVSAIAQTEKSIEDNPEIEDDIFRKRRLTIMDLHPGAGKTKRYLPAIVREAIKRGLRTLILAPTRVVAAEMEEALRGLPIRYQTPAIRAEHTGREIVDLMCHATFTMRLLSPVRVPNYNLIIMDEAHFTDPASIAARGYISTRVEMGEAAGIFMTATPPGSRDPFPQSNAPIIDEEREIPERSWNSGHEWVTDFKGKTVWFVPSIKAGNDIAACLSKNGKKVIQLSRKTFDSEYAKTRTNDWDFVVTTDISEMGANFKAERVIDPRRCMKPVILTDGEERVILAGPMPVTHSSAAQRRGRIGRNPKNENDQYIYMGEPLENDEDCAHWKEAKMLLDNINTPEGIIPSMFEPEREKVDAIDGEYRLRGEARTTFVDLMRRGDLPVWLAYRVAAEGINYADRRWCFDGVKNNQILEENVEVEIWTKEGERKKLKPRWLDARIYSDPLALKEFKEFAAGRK

A word on the pIC50: it is −log10 of the IC50, conventionally taken in molar units. A low value points to a large IC50. Turning to `O=C(O)CCc1ccc(NC(=O)c2cc(Cl)cc(C3CC3)c2)cc1`, the negative logarithm of the IC50 (pIC50) at Genome polyprotein [1] and against Genome polyprotein [2] was < 4.00 throughout.
With `O=C(O)Cn1ncc2cc(-c3cc(Cl)cc(NC(=O)OCc4ccccc4)c3)ccc21`, the pIC50 on Genome polyprotein [1] was 4.97 and 4.96; against Genome polyprotein [2] it was 4.68.
In the case of `Cc1c(C(=O)Nc2cc(C#N)c3ccccc3n2)cc(C2CC2)n1C`, the pIC50 on Genome polyprotein [1] and at Genome polyprotein [2] was < 4.00 throughout.
As for `CC(=O)N1CC[C@]2(C1)C(=O)Nc1cccc(C(=O)Nc3ccc4c(c3)CNC4)c12`, the pIC50 against Genome polyprotein [1] and against Genome polyprotein [2] was < 4.00 in each case.
On to `Cc1oc(C(=O)Nc2cccc(CN)c2)cc1COc1ccccc1`, for which the negative-log IC50 (pIC50) at Genome polyprotein [1] and on Genome polyprotein [2] was < 4.00 throughout.
Consider `CS(=O)(=O)N(c1cc(Cl)cc(C(=O)Nc2cccc(CN)c2)c1)S(C)(=O)=O`, for which the pIC50 at Genome polyprotein [1] and against Genome polyprotein [2] was < 4.00 in each case.
As to `O=C(Nc1ccc2c(c1)CNC2)c1cc(Br)cc2[nH]ncc12`, the negative logarithm of the IC50 (pIC50) on Genome polyprotein [1] and against Genome polyprotein [2] was < 4.00 each time.
As for `O=C(Nc1cc(Cl)cc(S(=O)(=O)Nc2cccc(-c3nn[nH]n3)c2)c1)OCc1ccccc1`, the pIC50 was 4.94 and 5.05 on Genome polyprotein [1]; 4.65 against Genome polyprotein [2].
As to `O=C(Nc1ccc2[nH]c(=O)[nH]c2c1)c1cc(F)cc2[nH]ncc12`, the pIC50 against Genome polyprotein [1] and against Genome polyprotein [2] was < 4.00 throughout.
On to `CNC(=O)[C@H](Nc1cc(CN)cc(C(=O)O)c1)c1cc(Cl)cc(NC(=O)OCc2ccccc2)c1`, for which the pIC50 against Genome polyprotein [1] and against Genome polyprotein [2] was < 4.00 throughout.
For `NCCc1cc(Cl)cc(C(=O)Nc2cccc(CN)c2)c1`, the pIC50 on Genome polyprotein [1] and against Genome polyprotein [2] was < 4.00 in each case.
As for `O=C(O)c1ccc(Cc2c[nH]c3ccc(Cl)cc23)cc1`, the negative logarithm of the IC50 (pIC50) on Genome polyprotein [1] and at Genome polyprotein [2] was < 4.00 throughout.
In the case of `Cc1c(C(=O)Nc2cc(C(=O)N3CCC(O)CC3)ccn2)cc(C2CC2)n1C`, the pIC50 against Genome polyprotein [1] and on Genome polyprotein [2] was < 4.00 throughout.
As to `CC(C)(C)OC(=O)NCc1cc(Br)cc(NC(=O)c2cc(Cl)cc(NC(=O)OCc3ccccc3)c2)c1`, the pIC50 on Genome polyprotein [1] and at Genome polyprotein [2] was < 4.00 each time.
Turning to `O=C(NCC(F)F)[C@H](Nc1ccc2c(c1)CNC2)c1cc(Br)cc2nc[nH]c12`, the negative logarithm of the IC50 (pIC50) at Genome polyprotein [1] and against Genome polyprotein [2] was < 4.00 throughout.
Turning to `N[C@H]1CC[C@H](NC(=O)c2cc(Cl)cc(NC(=O)OCc3ccccc3)c2)C1`, the pIC50 at Genome polyprotein [1] and against Genome polyprotein [2] was < 4.00 throughout.
As to `COc1cc(Cl)cc([C@H](Nc2ccc3c(c2)CNC3)C(=O)NCC(F)F)c1`, the pIC50 at Genome polyprotein [1] and on Genome polyprotein [2] was < 4.00 each time.
As for `CCOCC1(c2nc3c(C(=O)Nc4ccc5c(c4)CNC5)cc(Cl)cc3[nH]2)CC1`, the pIC50 was < 4.00 against Genome polyprotein [1] and 4.06 at Genome polyprotein [2].
For `NCc1cccc(NC(=O)c2cc(C(F)(F)F)cnc2N2CCOCC2)c1`, in that order: < 4.00 and < 4.00.
As for `O=C(Nc1cc(Cl)cc([C@H](Nc2cccc(-c3nn[nH]n3)c2)C(=O)NCc2ccccc2)c1)OCc1ccccc1`, the pIC50 was 5.15 and 5.19 against Genome polyprotein [1]; 5.09 against Genome polyprotein [2].
Turning to `CC(C)(C)OC(=O)NCc1cc(NC(=O)c2cc(Cl)cc(NC(=O)OCc3ccccc3)c2)cc(-c2nn[nH]n2)c1`, the figures for the pIC50 against Genome polyprotein [1] and at Genome polyprotein [2] were 4.97 and 5.13, respectively.
For the compound `NCc1cccc(NC(=O)[C@H](NC(=O)OCc2ccccc2)c2cccc(-c3ccc4c(c3)CC(=O)N4)c2)c1`, the negative-log IC50 (pIC50) was < 4.00 against Genome polyprotein [1]; 4.79 and 5.14 against Genome polyprotein [2].
With `CN1C[C@H](c2cccc(CN)c2)[C@@H](c2cc(Cl)cc(NC(=O)OCc3ccccc3)c2)C1`, the pIC50 against Genome polyprotein [1] and at Genome polyprotein [2] was < 4.00 each time.
On to `CS(=O)(=O)NC(=O)c1cc(CN)cc([C@@H]2C[C@H]2c2cc(Cl)cc(NC(=O)OCc3ccccc3)c2)c1`, for which the pIC50 against Genome polyprotein [1] and against Genome polyprotein [2] was < 4.00 in each case.
In the case of `C#C[C@H](Nc1cccc(-c2nn[nH]n2)c1)c1cc(Cl)cc(NC(=O)OCc2ccccc2)c1`, the pIC50 on Genome polyprotein [1] was 5.03 and 5.08; against Genome polyprotein [2] it was 4.97.
For `Cc1ccc(NC(=O)c2cc(C3CC3)n(C)c2C)cc1-c1cccnc1`, the pIC50 against Genome polyprotein [1] and against Genome polyprotein [2] was < 4.00 in each case.
For `O=C(Nc1cc(-c2cccnc2)ccn1)c1cc2n(n1)CCS2(=O)=O`, the pIC50 at Genome polyprotein [1] and at Genome polyprotein [2] was < 4.00 throughout.
`NCCc1cccc(NC(=O)c2cc(Cl)cc3[nH]ncc23)c1`: the negative logarithm of the IC50 (pIC50) at Genome polyprotein [1] and at Genome polyprotein [2] was < 4.00 throughout.
For `NCc1cccc(NC(=O)[C@H](NC(=O)OCc2ccccc2)c2ccc(OCCc3cscn3)cc2)c1`, the pIC50 against Genome polyprotein [1] and against Genome polyprotein [2] was < 4.00 each time.
With `CC(C)COc1ccc(Cl)cc1C(=O)Nc1ccc2c(c1)CNC2`, the negative logarithm of the IC50 (pIC50) at Genome polyprotein [1] and at Genome polyprotein [2] was < 4.00 throughout.
As to `O=C(Nc1cc(Cl)cc(C(=O)Nc2nc([C@H]3CCCN3)cc(=O)[nH]2)c1)OCc1ccccc1`, the pIC50 against Genome polyprotein [1] is < 4.00; on Genome polyprotein [2] it was 4.06.
As for `Cc1c(C(=O)Nc2cccc(-c3ccoc3)c2)cc(C2CC2)n1C`, the pIC50 on Genome polyprotein [1] and against Genome polyprotein [2] was < 4.00 throughout.
Turning to `N#Cc1cc(-c2ccc3[nH]c(C(=O)O)cc3c2)c2nc[nH]c2c1`, the pIC50 at Genome polyprotein [1] and on Genome polyprotein [2] was < 4.00 throughout.
Regarding `Cc1cc2c(C(=O)Nc3ccc4c(c3)CNC4)cccc2[nH]1`, the pIC50 against Genome polyprotein [1] and against Genome polyprotein [2] was < 4.00 in each case.
For the compound `O=C(Nc1ccc2c(c1)CNC2)c1cc(Cl)ccc1OCC(F)(F)F`, the negative logarithm of the IC50 (pIC50) against Genome polyprotein [1] and on Genome polyprotein [2] was < 4.00 in each case.
`O=C1Cc2c(cccc2C(=O)Nc2ccc(N3CCOC3=O)nc2)N1`: the negative logarithm of the IC50 (pIC50) on Genome polyprotein [1] and at Genome polyprotein [2] was < 4.00 each time.
In the case of `Cc1c(C(=O)Nc2cc(F)cc(CN)c2)cc(C2CC2)n1C`, the negative-log IC50 (pIC50) at Genome polyprotein [1] and on Genome polyprotein [2] was < 4.00 each time.
With `O=C(Nc1cc(Cl)cc(C(=O)N2CCC(C(=O)O)CC2)c1)OCc1ccccc1`, the pIC50 against Genome polyprotein [1] and at Genome polyprotein [2] was < 4.00 each time.
For the compound `NCCc1cc(C(=O)Nc2cc(-c3cccnc3)ccn2)no1`, the pIC50 against Genome polyprotein [1] and against Genome polyprotein [2] was < 4.00 each time.
Turning to `CCn1c(=O)c(N2CC[C@H](CO)C2)nc2ccc(C(=O)N(C)C)cc21`, the pIC50 on Genome polyprotein [1] and against Genome polyprotein [2] was < 4.00 throughout.
Turning to `CS(=O)(=O)N1CCC([C@@H](NC(=O)OCc2ccccc2)C(=O)Nc2cccc(CN)c2)CC1`, the negative logarithm of the IC50 (pIC50) against Genome polyprotein [1] and against Genome polyprotein [2] was < 4.00 each time.
Consider `CC(=O)N(c1ccc2c(c1)CNC2)[C@H](C(=O)NCC(F)F)c1cc(Cl)cc(C2CC2)c1`, for which the pIC50 against Genome polyprotein [1] and at Genome polyprotein [2] was < 4.00 each time.
Turning to `C[C@H](C(=O)O)N(C)C(=O)c1cc(Cl)cc(NC(=O)OCc2ccccc2)c1`, the negative-log IC50 (pIC50) against Genome polyprotein [1] and on Genome polyprotein [2] was < 4.00 in each case.
`O=C(CSc1cccc(Br)c1)Nc1ccc2c(c1)CNC2`: the pIC50 against Genome polyprotein [1] and against Genome polyprotein [2] was < 4.00 throughout.
On to `Cc1cc(CN)cc(NC(=O)c2cc(Cl)cc3[nH]ncc23)c1`, for which the pIC50 is 4.07 on Genome polyprotein [1] and 4.01 against Genome polyprotein [2].
For `Cc1cc(C(=O)Nc2ccc3c(c2)CNC3)cc2nn[nH]c12`, the pIC50 at Genome polyprotein [1] and at Genome polyprotein [2] was < 4.00 throughout.
For the compound `O=C(Nc1cc([C@H]2CCOC2)ccn1)c1cc(F)cc2[nH]ncc12`, the pIC50 at Genome polyprotein [1] and at Genome polyprotein [2] was < 4.00 each time.
Turning to `O=C(NCC(F)F)[C@H](Nc1ccc2c(c1)CNC2)c1cc(Cl)cc(C2CC2)c1`, the negative logarithm of the IC50 (pIC50) against Genome polyprotein [1] and against Genome polyprotein [2] was < 4.00 throughout.
`Cc1cc(CN)cc(NC(=O)c2cccc3c2CC(=O)N3)c1`: the values for the pIC50 at Genome polyprotein [1] and against Genome polyprotein [2] were < 4.00 and 4.12, respectively.
For `O=C1C[C@H](c2cccc(-c3cc(F)cc(C(=O)Nc4ccc5c(c4)CNC5)c3)c2)N1`, in that order: < 4.00 and < 4.00.
For `NCCCc1ccnc(NC(=O)c2cnn3c2CCC3)c1`, in that order: < 4.00 and < 4.00.
In the case of `CC(C)OC(=O)Nc1cc(Cl)cc(C(=O)Nc2cccc(CN)c2)c1`, the pIC50 against Genome polyprotein [1] and against Genome polyprotein [2] was < 4.00 in each case.
In the case of `Cc1ncc(-c2cc(F)cc(C(=O)Nc3ccc4c(c3)CNC4)c2)s1`, the negative logarithm of the IC50 (pIC50) at Genome polyprotein [1] and on Genome polyprotein [2] was < 4.00 each time.
On to `O=C(Nc1cc(Cl)cc(-c2cnn3ccc(C(=O)O)cc23)c1)OCc1ccccc1`, for which the negative-log IC50 (pIC50) against Genome polyprotein [1] and on Genome polyprotein [2] was < 4.00 in each case.
With `C#Cc1ccnc(NC(=O)c2cc(C3CC3)n(C)c2C)c1`, the negative logarithm of the IC50 (pIC50) against Genome polyprotein [1] and against Genome polyprotein [2] was < 4.00 throughout.
Turning to `NCc1cccc([C@H](CCCO)Nc2cc(Cl)cc(NC(=O)OCc3ccccc3)c2)c1`, the figures for the pIC50 against Genome polyprotein [1] and at Genome polyprotein [2] were < 4.00 and 4.07, respectively.
Regarding `CN1Cc2cc(NC(=O)c3cc(Cl)cc4[nH]ncc34)ccc2C1(C)C`, the negative logarithm of the IC50 (pIC50) against Genome polyprotein [1] and on Genome polyprotein [2] was < 4.00 in each case.
Regarding `CC(C)(C)OC(=O)N1Cc2ccc(NC(=O)c3ccc4c(Br)csc4c3)cc2C1`, the negative logarithm of the IC50 (pIC50) against Genome polyprotein [1] and at Genome polyprotein [2] was < 4.00 throughout.
Take `C[C@H](NC(=O)c1cc(Cl)cc(NC(=O)OCc2ccccc2)c1)C(=O)O`: the negative logarithm of the IC50 (pIC50) against Genome polyprotein [1] and on Genome polyprotein [2] was < 4.00 in each case.
`Cc1c(C(=O)Nc2cc(C(=O)N3CC[C@H](CO)C3)ccn2)cc(C2CC2)n1C`: the negative-log IC50 (pIC50) on Genome polyprotein [1] and against Genome polyprotein [2] was < 4.00 in each case.
With `O=C(Nc1cc(Cl)cc(C(=O)NC[C@@]23CC[C@H](CNC2)C3)c1)OCc1ccccc1`, the pIC50 at Genome polyprotein [1] and against Genome polyprotein [2] was < 4.00 in each case.
As to `NCc1cc(F)cc(NC(=O)c2cc(Cl)cc(NC(=O)OCc3ccccc3)c2)c1`, the pIC50 against Genome polyprotein [1] and against Genome polyprotein [2] was < 4.00 throughout.
Turning to `Cc1nc2c(C(=O)Nc3ccc4c(c3)CNC4)cc(Cl)cc2[nH]1`, the pIC50 on Genome polyprotein [1] was 4.09; on Genome polyprotein [2], < 4.00.
For the compound `CCOc1cccc(-c2ccc(NS(=O)(=O)c3cc(F)c(Cl)cc3C(=O)O)cc2)c1`, the pIC50 against Genome polyprotein [1] was 5.11; against Genome polyprotein [2], 5.03.
As for `O=C(Nc1ccc2c(c1)CNC2)c1cc(Br)cc2[nH]c(C3CCOCC3)nc12`, the pIC50 against Genome polyprotein [1] and against Genome polyprotein [2] was < 4.00 in each case.
Consider `C[C@H](CC(=O)O)N(C)C(=O)c1cc(Cl)cc(NC(=O)OCc2ccccc2)c1`, for which the pIC50 against Genome polyprotein [1] and against Genome polyprotein [2] was < 4.00 throughout.
On to `O=C(Nc1cc(Cl)cc(C(=O)NC[C@H]2CC3(CNC3)CO2)c1)OCc1ccccc1`, for which the pIC50 against Genome polyprotein [1] and on Genome polyprotein [2] was < 4.00 in each case.
